{"source": "patent US20050260126A1", "about": "(priority 2002, published 2005)", "key": {"ScN2a cells": {"tested_on": "ScN2a cells", "settings": "for Concentration of inhibiting cell proliferation TC: mouse"}, "in vivo": {"assay": "in vivo", "settings": "male, Crj:CD1, mouse, iv"}, "[1]": {"settings": "Slc:ICR, mouse, not told, iv"}, "[2]": {"tested_on": "abnormal prion proteins (kuru plaques) in brain sections of GSS patients", "set-up": "species or system human", "settings": "GSS patient brain sections, 10-200 μM in 50% ethanol, 30 minutes"}, "[3]": {"tested_on": "abnormal prion proteins in ScN2a cells with persistent infection of scrapie", "assay": "cells", "format": "cell-based, mouse", "settings": "for IC50: Mus musculus, ScN2a, 96 h, read-out: Inhibitory effects on producing abnormal prion protein IC50; for Inhibitory effects on producing abnormal prion proteins (in words): ScN2a cells"}, "[4]": {"tested_on": "abnormal prion proteins in ScN2a cells with persistent infection of scrapie", "settings": "read-out: Inhibitory effects on producing abnormal prion protein IC50 (quinacrine, literature), Doh-ura et al. 2000; cited from earlier work"}}, "note": "Counter-ions that a name gives are not always drawn. Like-named read-outs stand apart in the source and are kept apart here.", "data": [{"smiles": "CCN(CC)c1ccc(/C=C/c2nc3ccccc3s2)cc1", "note": "[BF-124, 4-[2-(2-benzothiazolyl)-ethenyl]-N,N-diethyl-benzenamine hydrochloride]", "values": [{"measurement": "Concentration of inhibiting cell proliferation TC", "setting": "ScN2a cells", "value": 100, "unit": "µM"}, {"measurement": "MTD", "setting": "in vivo", "value": "≥ 10", "unit": "mg/kg"}, {"measurement": "Permeability into the brain: content in Brain", "setting": "[1]", "value": "2.4 % ID/g or ml"}, {"measurement": "Permeability into the brain: content in Plasma", "setting": "[1]", "value": "1.6 % ID/g or ml"}, {"measurement": "Detection of spotted depositions of abnormal prion proteins (fluorescent signals)", "setting": "[2]", "value": "spotted fluorescent signals were observed"}, {"measurement": "IC50", "setting": "[3]", "value": 100, "unit": "nM"}]}, {"smiles": "CCN(CC)c1ccc(/C=C/c2nc3ccccc3o2)cc1", "note": "[BF-125, 4-[2-(2-benzoxazolyl)ethenyl]-N,N-diethyl benzeneamine hydrochloride]", "values": [{"measurement": "Concentration of inhibiting cell proliferation TC", "setting": "ScN2a cells", "value": 50, "unit": "µM"}, {"measurement": "MTD", "setting": "in vivo", "value": "≥ 10", "unit": "mg/kg"}, {"measurement": "Permeability into the brain: content in Brain", "setting": "[1]", "value": "3.0 % ID/g or ml"}, {"measurement": "Permeability into the brain: content in Plasma", "setting": "[1]", "value": "2.5 % ID/g or ml"}, {"measurement": "Detection of spotted depositions of abnormal prion proteins (fluorescent signals)", "setting": "[2]", "value": "spotted fluorescent signals were observed"}, {"measurement": "IC50", "setting": "[3]", "value": 100, "unit": "nM"}]}, {"smiles": "CCN(CC)c1ccc(/C=C/c2nc3ccccc3[nH]2)cc1", "note": "[BF-126, 4-[2-(2-benzimidazole)-ethenyl]-N,N-diethyl-benzenamine p-toluenesulfonate]", "values": [{"measurement": "Concentration of inhibiting cell proliferation TC", "setting": "ScN2a cells", "value": 25, "unit": "µM"}, {"measurement": "MTD", "setting": "in vivo", "value": "≥ 10", "unit": "mg/kg"}, {"measurement": "Permeability into the brain: content in Brain", "setting": "[1]", "value": "7.2 % ID/g or ml"}, {"measurement": "Permeability into the brain: content in Plasma", "setting": "[1]", "value": "2.7 % ID/g or ml"}, {"measurement": "Detection of spotted depositions of abnormal prion proteins (fluorescent signals)", "setting": "[2]", "value": "spotted fluorescent signals were observed"}, {"measurement": "IC50", "setting": "[3]", "value": 100, "unit": "nM"}]}, {"smiles": "CNc1ccc(/C=C/c2nc3cc(F)ccc3o2)cc1", "note": "[BF-145, 2-(4-methylamino)-stryl-5-fluoro-benzoxazole]", "values": [{"measurement": "Concentration of inhibiting cell proliferation TC", "setting": "ScN2a cells", "value": 50, "unit": "µM"}, {"measurement": "MTD", "setting": "in vivo", "value": "≥ 10", "unit": "mg/kg"}, {"measurement": "Permeability into the brain: content in Brain", "setting": "[1]", "value": "4.4 % ID/g or ml"}, {"measurement": "Permeability into the brain: content in Plasma", "setting": "[1]", "value": "1.2 % ID/g or ml"}, {"measurement": "Detection of spotted depositions of abnormal prion proteins (fluorescent signals)", "setting": "[2]", "value": "spotted fluorescent signals were observed"}, {"measurement": "IC50", "setting": "[3]", "value": 5, "unit": "nM"}]}, {"smiles": "CNc1ccc(/C=C/c2nc3ccc(O)cc3o2)cc1", "note": "[BF-165, 2-(4-methylamino)-styl-6-hydroxy-benzoazole]", "values": [{"measurement": "Concentration of inhibiting cell proliferation TC", "setting": "ScN2a cells", "value": 100, "unit": "µM"}, {"measurement": "MTD", "setting": "in vivo", "value": "≥ 10", "unit": "mg/kg"}, {"measurement": "Permeability into the brain: content in Brain", "setting": "[1]", "value": "7.2 % ID/g or ml"}, {"measurement": "Permeability into the brain: content in Plasma", "setting": "[1]", "value": "1.9 % ID/g or ml"}, {"measurement": "Detection of spotted depositions of abnormal prion proteins (fluorescent signals)", "setting": "[2]", "value": "spotted fluorescent signals were observed"}, {"measurement": "IC50", "setting": "[3]", "value": 10, "unit": "nM"}]}, {"smiles": "CCN(CC)c1ccc(/C=C/c2nc3cc(F)ccc3[nH]2)cc1", "note": "[BF-166, 2-(4-diethylamino)-styryl-5-fluoro-benzimidazole]", "values": [{"measurement": "Concentration of inhibiting cell proliferation TC", "setting": "ScN2a cells", "value": 10, "unit": "µM"}, {"measurement": "MTD", "setting": "in vivo", "value": "< 10", "unit": "mg/kg"}, {"measurement": "Detection of spotted depositions of abnormal prion proteins (fluorescent signals)", "setting": "[2]", "value": "spotted fluorescent signals were observed"}, {"measurement": "IC50", "setting": "[3]", "value": 10, "unit": "nM"}]}, {"smiles": "CNc1ccc(/C=C/c2nc3ccc(OCCF)cc3o2)cc1", "note": "[BF-168, 6-(2-fluoroethoxy)-2-[2-(4-methylamino-phenyl)ethenyl]-benzoxazole]", "values": [{"measurement": "Concentration of inhibiting cell proliferation TC", "setting": "ScN2a cells", "value": 10, "unit": "µM"}, {"measurement": "MTD", "setting": "in vivo", "value": "≥ 10", "unit": "mg/kg"}, {"measurement": "Detection of spotted depositions of abnormal prion proteins (fluorescent signals)", "setting": "[2]", "value": "spotted fluorescent signals were observed"}, {"measurement": "IC50", "setting": "[3]", "value": 1, "unit": "nM"}, {"measurement": "Inhibitory effects on producing abnormal prion proteins (in words)", "setting": "[3]", "value": "highly inhibitory effects"}]}, {"smiles": "CNc1ccc(/C=C/c2nc3ccccc3o2)cc1", "note": "[BF-169, 2-(4-methylamino)-styrylbenzoxazole]", "values": [{"measurement": "Concentration of inhibiting cell proliferation TC", "setting": "ScN2a cells", "value": 100, "unit": "µM"}, {"measurement": "MTD", "setting": "in vivo", "value": "≥ 10", "unit": "mg/kg"}, {"measurement": "Detection of spotted depositions of abnormal prion proteins (fluorescent signals)", "setting": "[2]", "value": "spotted fluorescent signals were observed"}, {"measurement": "IC50", "setting": "[3]", "value": 10, "unit": "nM"}]}, {"smiles": "CN(C)c1ccc(/C=C/c2ccc3ccccc3n2)cc1", "note": "[BF-179, 2-[2-(4-dimethylamino-phenyl)ethenyl]-quinoline]", "values": [{"measurement": "Concentration of inhibiting cell proliferation TC", "setting": "ScN2a cells", "value": 5, "unit": "µM"}, {"measurement": "MTD", "setting": "in vivo", "value": "≥ 10", "unit": "mg/kg"}, {"measurement": "Permeability into the brain: content in Brain", "setting": "[1]", "value": "4.3 % ID/g or ml"}, {"measurement": "Permeability into the brain: content in Plasma", "setting": "[1]", "value": "1.7 % ID/g or ml"}, {"measurement": "Detection of spotted depositions of abnormal prion proteins (fluorescent signals)", "setting": "[2]", "value": "spotted fluorescent signals were observed"}, {"measurement": "IC50", "setting": "[3]", "value": 5, "unit": "nM"}]}, {"smiles": "CN(C)c1ncc(/C=C/c2nc3ccc(OCCF)cc3o2)s1", "note": "[BF-227, 2-[2-(2-dimethylamino-thiazol-5-yl)ethenyl]-6-(2-fluoroethoxy) benzoxazole]", "values": [{"measurement": "Concentration of inhibiting cell proliferation TC", "setting": "ScN2a cells", "value": 10, "unit": "µM"}, {"measurement": "MTD", "setting": "in vivo", "value": "≥ 10", "unit": "mg/kg"}, {"measurement": "Permeability into the brain: content in Brain", "setting": "[1]", "value": "7.9 % ID/g or ml"}, {"measurement": "Permeability into the brain: content in Plasma", "setting": "[1]", "value": "2.1 % ID/g or ml"}, {"measurement": "Detection of spotted depositions of abnormal prion proteins (fluorescent signals)", "setting": "[2]", "value": "spotted fluorescent signals were observed"}, {"measurement": "IC50", "setting": "[3]", "value": 4, "unit": "nM"}]}, {"smiles": "CCN(CC)c1ccc(-c2ccc3ccccc3n2)cc1", "note": "[Compound N-313, 2-[(4-diethylamino)-phenyl]quinoline]", "values": [{"measurement": "Concentration of inhibiting cell proliferation TC", "setting": "ScN2a cells", "value": 50, "unit": "µM"}, {"measurement": "Permeability into the brain: content in Brain", "setting": "[1]", "value": "4.6 % ID/g or ml"}, {"measurement": "Permeability into the brain: content in Plasma", "setting": "[1]", "value": "1.1 % ID/g or ml"}, {"measurement": "Detection of spotted depositions of abnormal prion proteins (fluorescent signals)", "setting": "[2]", "value": "spotted fluorescent signals were observed"}, {"measurement": "IC50", "setting": "[3]", "value": 500, "unit": "nM"}]}, {"smiles": "C(=C\\c1nc2ccccc2o1)/c1ccccc1", "note": "[Compound N-407, 2-(2-phenylethenyl)-benzoxazole]", "values": [{"measurement": "TC and safety concentration margin (in words)", "setting": "ScN2a cells", "value": "higher TCs, therefore higher safety concentration margins"}, {"measurement": "Concentration of inhibiting cell proliferation TC", "setting": "ScN2a cells", "value": 100, "unit": "µM"}, {"measurement": "MTD", "setting": "in vivo", "value": "≥ 10", "unit": "mg/kg"}, {"measurement": "Permeability into the brain: content in Brain", "setting": "[1]", "value": "16.0 % ID/g or ml"}, {"measurement": "Permeability into the brain: content in Plasma", "setting": "[1]", "value": "1.3 % ID/g or ml"}, {"measurement": "Detection of spotted depositions of abnormal prion proteins (fluorescent signals)", "setting": "[2]", "value": "spotted fluorescent signals were observed"}, {"measurement": "IC50", "setting": "[3]", "value": 1, "unit": "nM"}, {"measurement": "Inhibitory effects on producing abnormal prion proteins (in words)", "setting": "[3]", "value": "highly inhibitory effects"}]}, {"smiles": "C(=C\\c1nc2ccccc2s1)/c1ccccc1", "note": "[Compound N-438, 2-(2-phenylethenyl)-benzothiazole]", "values": [{"measurement": "Concentration of inhibiting cell proliferation TC", "setting": "ScN2a cells", "value": 100, "unit": "µM"}, {"measurement": "MTD", "setting": "in vivo", "value": "≥ 10", "unit": "mg/kg"}, {"measurement": "Permeability into the brain: content in Brain", "setting": "[1]", "value": "11 % ID/g or ml"}, {"measurement": "Permeability into the brain: content in Plasma", "setting": "[1]", "value": "1.9 % ID/g or ml"}, {"measurement": "Detection of spotted depositions of abnormal prion proteins (fluorescent signals)", "setting": "[2]", "value": "spotted fluorescent signals were observed"}, {"measurement": "IC50", "setting": "[3]", "value": 10, "unit": "nM"}]}, {"smiles": "Cc1ccc2sc(/C=C/c3ccc(Cl)cc3)nc2c1", "note": "[Compound N-441, 2-[2-(4-chlorophenyl)ethenyl]-5-methyl-benzothiazole]", "values": [{"measurement": "TC and safety concentration margin (in words)", "setting": "ScN2a cells", "value": "higher TCs, therefore higher safety concentration margins"}, {"measurement": "Concentration of inhibiting cell proliferation TC", "setting": "ScN2a cells", "value": 100, "unit": "µM"}, {"measurement": "MTD", "setting": "in vivo", "value": "≥ 10", "unit": "mg/kg"}, {"measurement": "Permeability into the brain: content in Brain", "setting": "[1]", "value": "5.6 % ID/g or ml"}, {"measurement": "Permeability into the brain: content in Plasma", "setting": "[1]", "value": "2.7 % ID/g or ml"}, {"measurement": "Detection of spotted depositions of abnormal prion proteins (fluorescent signals)", "setting": "[2]", "value": "spotted fluorescent signals were observed"}, {"measurement": "IC50", "setting": "[3]", "value": 1, "unit": "nM"}, {"measurement": "Inhibitory effects on producing abnormal prion proteins (in words)", "setting": "[3]", "value": "highly inhibitory effects"}]}, {"smiles": "CCN(CC)CCCC(C)Nc1c2ccc(Cl)cc2nc2ccc(OC)cc12", "note": "(centres unmarked) [quinacrine]", "values": [{"measurement": "IC50", "setting": "[4]", "value": 400, "unit": "nM"}]}]}
